The text below walks through data of US5763438A, “2-acylaminopropanol compound and medical composition” (Seikagaku Corporation, priority 1994, dated 1998).

Where two headings read alike, the source gives them in different places.

Series [1] is described as follows: Cytotoxicity to uninfected MDCK cells (MTT method). To be noted: dog, mdck cells. A general note: Formazan colour is commonly taken as a measure of viable cells.
Method: Further, in order to evaluate the cytotoxicities to the MDCK cells of the compounds of the present invention, these compounds at the same concentration were added to cells which were not infected with virus, and the survival rate after carrying out culture in the same manner was examined by the MTT method, which is also shown in Table 1.
The subject of series [2] is A/PR/8/34 strain influenza virus. The series is described as follows: microbe, parasite or virus in culture. To be noted: for inhibition at 10 µM: unidentified influenza virus, PR/8, MDCK, 72 h, read-out: Virus growth inhibition (%). It is filed as cell-based, influenza virus A/PR/8/34.
Series [3] has the same test system. As to the kind of experiment: microbe, parasite or virus in culture. It is filed as cell-based, influenza virus A/PR/8/34. To be noted: for EC50: unidentified influenza virus, PR/8, MDCK, 72 h, read-out: ED50 (concentration at which the cytopathic effect derived from virus was reduced by 50% as compared with a control). (In general: Protection from cytopathic effect is a common read-out in antiviral testing.)

In a further series the test system is B16 melanoma cells. The series is described as follows: Glycolipid biosynthesis-accelerating action in B16 melanoma cells (uptake of 14C-galactose into GSL fraction). It is filed as cell-based. Particulars: for Uptake of 14C-galactose into GSL fraction: 24 hours, control 6,100; for Acceleration of biosynthesis of glycolipids including ganglioside (in words): Table 2. The protocol:
B16 melanoma cells derived from neuroectoderm were put into a culture plate with 12 wells in an amount of 2×10^5 cells/well and cultured for 24 hours in Dulbecco modified Eagle's media containing 10% bovine fetal serum. Thereafter, the media were exchanged with the same culture broths containing 2-acylaminopropanol compounds shown in Table 2, and ^14 C-galactose was added thereto. After 24 hours, the media were removed, the cells were washed with 1 ml of a phosphate buffer containing 0.02% EDTA, 1 ml of 0.25 % trypsin was added, and the mixtures were left to stand at 37° C. for 5 minutes. The cells were recovered by using the same culture broths and washed with a phosphate buffer, and then masses of the cells were obtained. 4 ml of methanol and chloroform were added successively to the masses of the cells to extract all GSL, followed by evaporation to dryness. Next, after this all GSL was suspended in 1 ml of water, the suspensions were dialyzed to water for 2 days to completely remove low molecules such as ^14 C-galactose, etc. The radioactivities of the GSL fractions thus obtained were measured by a liquid scintillation counter. A control is a result of carrying out an experiment in the same manner by exchanging the medium with the same amount of a culture broth not containing the compound of the present invention.

The test system of a further series is MDCK cells. The series is described as follows: Cytotoxicity to uninfected MDCK cells (MTT method). Particulars: 10 μM; MDCK cells.
For series [4] the following is noted: J. Lipid Res., Vol. 32, 713-722 (1991); cited from earlier work.
A further series relates to virus. To be noted: Seikagaku vol. 65(8), p. 695 (1993); cited from earlier work.
Where [5] appears, read: 10 μM, MDCK cells, 3 days at 37° C., control 80.0.
[6] abbreviates: Mus musculus, B16, 24 h, 10 μM, control 100, read-out: Glycolipid biosynthesis acceleration (%).

In general, viability refers to a per cent measure of how many cells are alive, often set against a control. A low value points to a greater loss of cells. In general, inhibition refers to how much of the control response was suppressed. `CCCCCCCCCC(=O)N[C@H](CN1CCOCC1)[C@H](O)c1ccccc1` [D-threo-PDMP, reference compound] displayed a viability at 72 h, 10 µM in series [1] of 60 to 80%. Moreover, the inhibition at 10 µM in series [2] worked out at 97.1%. Besides, in series [3], the “Cytopathic effect (%)” value was 44.8%.
Consider `CCCCCCCCCC(=O)NC(CN1CCCCC1CO)C(O)c1ccccc1` (mixture of isomers) [drawing 11 (Mixture of isomers), 2-decanoylamino-3-(2-(hydroxymethyl)-piperidino)-1-phenyl-1-propanol], for which the viability at 72 h, 10 µM in series [1] lay within 80 to 100%. For the same compound, the inhibition at 10 µM in series [2] was found to be 99.7%. For the same compound, in series [3] (setting [5]), the “Cytopathic effect (%)” value turned out to be 3.1%. The EC50 in series [3] was found to be 1.5 µM.
`CCCCCCCCCC(=O)N[C@H](CN1CCCCC1)[C@H](O)c1ccccc1` (relative stereo) [drawing 8 (DL-threo), 2-decanoylamino-1-phenyl-3-piperidino-1-propanol] displayed a viability at 72 h, 10 µM in series [1] of 80 to 100%. Further, the inhibition at 10 µM in series [2] stood at 93.9%. For the same compound, the “Cytopathic effect (%)” value in series [3] (setting [5]) was found to be 40.0%.
Consider `CCCCCCCCCC(=O)N[C@@H](CN1CCC(O)C1)[C@@H](O)c1ccccc1` (some centres unmarked) [Compound 3], for which, in the series on B16 melanoma cells (10 μM), the “Uptake of 14C-galactose into GSL fraction” value was 9,380 cpm/mg protein. Besides, the activity at 10 µM in the series with B16 melanoma cells (setting [6]) stood at 161%. Moreover, the “Acceleration of biosynthesis of glycolipids including ganglioside (in words)” value (“Acceleration” for short) with B16 melanoma cells is “significantly accelerate biosynthesis of glycolipids including ganglioside”.
In series [1], `CCCCCCCCCC(=O)N[C@@H](CN1CCC(O)CC1)[C@H](O)c1ccccc1` (relative stereo) [drawing 9 (DL-erythro), 2-decanoylamino-3-(4-hydroxypiperidino)-1-phenyl-1-propanol] returned a viability at 72 h, 10 µM of 100%. The “Cytotoxicity (in words)” value in the series with MDCK cells was “cytotoxicity at this concentration was not observed at all”. Besides, in series [2], the “Suppression of growth of influenza virus (in words)” value is “completely suppressed growth of influenza virus” and the inhibition at 10 µM was found to be 100%. Also, in series [3], the “Cytopathic effect (%)” value came to 0% and the EC50 came out at 5 µM.
In the case of `CCCCCCCCCC(=O)N[C@H](CN1CCC(O)CC1)[C@H](O)c1ccccc1` (relative stereo) [drawing 9 (DL-threo), 2-decanoylamino-3-(4-hydroxypiperidino)-1-phenyl-1-propanol], the viability at 72 h, 10 µM in series [1] was 100%. The inhibition at 10 µM in series [2] was found to be 87.3%. In series [3] (setting [5]), the “Cytopathic effect (%)” value came to 14.2%. Moreover, in series [3], the EC50 was found to be 5.4 µM.
For `CCCCCCCCCC(=O)N[C@@H](CNC1CCC(O)CC1)[C@@H](O)c1ccccc1` (some centres unmarked) [Compound 4], the “Uptake of 14C-galactose into GSL fraction” value in the series with B16 melanoma cells (5 μM) is reported as 9,740 cpm/mg protein. Besides, the activity at 5 µM in the series on B16 melanoma cells (Mus musculus, B16, 24 h, 5 μM, control 100, read-out: Glycolipid biosynthesis acceleration (%)) was 160%. The “Acceleration” value in the series on B16 melanoma cells is “significantly accelerate biosynthesis of glycolipids including ganglioside”.
On to `CCCCCCCCCC(=O)N[C@@H](CN1CCC(O)CC1)[C@@H](O)c1ccccc1` [drawing 13 (L-threo)], for which the “Uptake of 14C-galactose into GSL fraction” value with B16 melanoma cells (10 μM) was 9,670 cpm/mg protein. Also, the activity at 10 µM with B16 melanoma cells (setting [6]) came to 159%. Further, in the series with B16 melanoma cells, the “Acceleration” value is on record as “significantly accelerate biosynthesis of glycolipids including ganglioside”.
As to `CCCCCCCCCC(=O)N[C@@H](CN1CCN(C)CC1)[C@@H](O)c1ccccc1` [Compound 2], the “Uptake of 14C-galactose into GSL fraction” value in the series on B16 melanoma cells (10 μM) is 10,300 cpm/mg protein. The activity at 10 µM in the series with B16 melanoma cells (setting [6]) came out at 169%. Besides, the “Acceleration” value in the series with B16 melanoma cells is recorded as “significantly accelerate biosynthesis of glycolipids including ganglioside”.
In series [1], `CCCCCCCCCC(=O)N[C@@H](CN1CCCCC1)[C@H](O)c1ccccc1` (relative stereo) [drawing 8 (DL-erythro), 2-decanoylamino-1-phenyl-3-piperidino-1-propanol] yielded a viability at 72 h, 10 µM of 80 to 100%. In addition, in series [2], the inhibition at 10 µM worked out at 99.6%. In addition, in series [3] (setting [5]), the “Cytopathic effect (%)” value was 7.8%.
The compound `CCCCCCCCCC(=O)N[C@@H](CN(CC)CC)[C@H](O)c1ccccc1` (relative stereo) [drawing 10 (DL-erythro), 2-decanoylamino-3-diethylamino-1-phenyl-1-propanol] returned a viability at 72 h, 10 µM in series [1] of 100%. Moreover, the inhibition at 10 µM in series [2] came out at 88.5%. For the same compound, the “Cytopathic effect (%)” value in series [3] (setting [5]) worked out at 9.9%. For the same compound, the EC50 in series [3] amounted to 1.5 µM.
Consider `CCCCCCCCCC(=O)NC(CN1CCOCC1)C(O)c1ccccc1` (centres unmarked) [PDMP, 1-phenyl-2-decanoylamino-3-morpholino-1-propanol], for which the “Passing a blood-brain barrier (in words)” value in series [4] is “can pass a blood-brain barrier”. In the series on virus, the “Antiviral activity (in words)” value was “has an antiviral activity”.
Turning to `CCCCCCCCCC(=O)N[C@@H](CN1CCC(O)CC1)[C@H](O)c1ccccc1` [drawing 13 (D-erythro)], in the series with B16 melanoma cells (10 μM), the “Uptake of 14C-galactose into GSL fraction” value is recorded as 11,470 cpm/mg protein. Also, the activity at 10 µM with B16 melanoma cells (setting [6]) stood at 188%. In addition, the “Acceleration” value in the series on B16 melanoma cells was “significantly accelerate biosynthesis of glycolipids including ganglioside”.
